Data as given in US20240269337A1, “METHOD AND SYSTEM FOR COATING FILTER MEDIA” (MOLECULAR PLASMA GROUP SA, priority 2021, published 2024).

Columns and labels:
MS2 virus = experiment: Virucidal testing with MS2 droplets on coated filter media 2.2 (Example 3); assay type: cell-based; settings: 2 hours incubation
Method: Filter media 2.2 were coated according to the process parameters of Table 9 using the same PlasmaLine® equipment. For each coating process, 2 samples were coated with the outer waved layer exposed to the plasma source, and 2 samples were coated with the outer backing layer surface exposed.
Two precursors were used: an aqueous solution comprising 40% by weight of citric acid, and a solution of 15% by weight of chlorocresol in ethanol.
The anti-viral properties were tested by application of a fixed number of water droplets containing the MS2 virus on the surface of the samples. The droplets were applied to the surface that was exposed to the plasma source during the atmospheric pressure plasma coating process. After an incubation of 2 hours, the samples were immerged in a recuperation solution to extract the virus from the samples. The recuperation solution was placed in a petri dish wherein the E. coli bacteria grew, and the number of viral zones (zones comprising death bacteria) are counted. A lower number of viral zones indicates a larger neutralisation of the virus by the plasma coating.
The Virucide result (log value) gives the log value of the number of living viruses found in the recuperation solution.

[1] = system: Staphylococcus aureus (gram-positive); experiment: Quantitative antibacterial activity test of treated materials (OECD / ISO 22197/20743), Gram +; assay type: cell-based, S. aureus ATCC6538P
[2] = system: Escherichia coli (gram-negative); experiment: Quantitative antibacterial activity test of treated materials (OECD / ISO 22197/20743), Gram −; assay type: cell-based
Phi-6 bacteriophage = experiment: Phi-6 virucidal test (modified ISO 10705-1:1995); assay type: cell-based; settings: 20 wt% citric acid precursor, Outer wave sample, 2-hour contact
[3] = pH test (change in pH value before and after coating, penetration depth); assay type: physicochemical; settings: Outer wave sample
Method: The penetration depth was measured by measuring the change in pH value before and after coating on samples of the outer wave layer 51. […] Presence of citric acid was also detected in the intermediate layer 52.

MS2 = MS2 test after accelerated ageing (ASTM F1980-16), Example 4; assay type: cell-based
Description: Same filter media 2.2 as in example 3 was used. The filter media was placed with the outer backing layer on a support platform and the outer wave layer exposed to the coating precursor-comprising plasma discharge (or the plasma source) during the atmospheric pressure plasma coating process.
Two different precursors were used: an aqueous solution comprising 50% by weight of citric acid (CAS 77-92-9), and an aqueous solution comprising 25% by weight n-alkyl(C12-16)-n,n-dimethyl-n-benzylammonium chloride (BTC50E; CAS 68424-85-1) (1:1 w/w dilution in water).
Filter media samples were coated with each coating by passing 3 or 6 times through the plasma discharge area. The virucidal performance was tested by the MS2 test as explained above. An accelerated ageing test was performed according to ASTM F1980-16. […] An ageing test of 3 days at 55° C. and 75% RH represents 1 month in real life conditions. The results of the virucidal performance after ageing gives an idea of the durability of the coating over time.

[4] = exposed side Backing layer, 5 passes
[5] = exposed side Backing layer, 10 passes
[6] = exposed side waved layer, 5 passes
[7] = exposed side waved layer, 10 passes
[8] = exposed side waved layer, 20 passes
[9] = exposed side Backing layer, 20 passes
[10] = 3 passes, 0 days oven (0 months real life)
[11] = 3 passes, 9 days oven (3 months real life)
[12] = 3 passes, 19 days oven (6 months real life)
[13] = 3 passes, 27 days oven (9 months real life)
[14] = 3 passes, 36 days oven (12 months real life)
[15] = 6 passes, 0 days oven (0 months real life)
[16] = 6 passes, 6 days oven 55° C. 75% RH (2 months real life)
[17] = 6 passes, 9 days oven (3 months real life)
[18] = 6 passes, 19 days oven (6 months real life)
[19] = 6 passes, 27 days oven (9 months real life)
[20] = 6 passes, 36 days oven (12 months real life)
[21] = 3 passes, 3 days oven 55° C. 75% RH (1 month real life)
[22] = 3 passes, 6 days oven 55° C. 75% RH (2 months real life)
[23] = 6 passes, 3 days oven 55° C. 75% RH (1 month real life)

Cc1cc(O)ccc1Cl [Chlorocresol, reference compound]
Virus neutralized (%) (MS2 virus; [4]): 68.4%
Viruside results (log red) (MS2 virus; [4]): 0.5 log red
Virus neutralized (%) (MS2 virus; [5]): 98.0%
Viruside results (log red) (MS2 virus; [5]): 1.7 log red
Virus neutralized (%) (MS2 virus; [6]): 36.9%
Viruside results (log red) (MS2 virus; [6]): 0.2 log red
Virus neutralized (%) (MS2 virus; [7]): 74.9%
Viruside results (log red) (MS2 virus; [7]): 0.6 log red
Virus neutralized (%) (MS2 virus; [8]): 84.2%
Viruside results (log red) (MS2 virus; [8]): 0.8 log red

C=C(C)C(=O)OCCN(C)C [DIMAEMA, 2-(Dimethylamino) ethyl methacrylate]
% Gram + bacteria reduced ([1]; PPNW substrate 25 g/m^2): >99.994%
Gram + log reduction ([1]; PPNW substrate 25 g/m^2): >4.2 log
% Gram + bacteria reduced ([1]; Tyvek substrate): >99.95%
Gram + log reduction ([1]; Tyvek substrate): >3.3 log
% Gram − bacteria reduced ([2]; PPNW substrate 25 g/m^2): >99.9996%
Gram − log reduction ([2]; PPNW substrate 25 g/m^2): >5.4 log
% Gram − bacteria reduced ([2]; Tyvek substrate): 20.6%
Gram − log reduction ([2]; Tyvek substrate): 0.1 log

CCCCCCCCCCCCCCCCCC[N+](C)(C)CCC[Si](OC)(OC)OC.[Cl-] [SiQAM, Dimethyloctadecyl[3-(trimethoxysilyl)propyl] ammonium chloride]
% Gram + bacteria reduced ([1]; PPNW substrate 25 g/m^2): >99.994%
Gram + log reduction ([1]; PPNW substrate 25 g/m^2): >4.2 log
% Gram + bacteria reduced ([1]; Tyvek substrate): >99.95%
Gram + log reduction ([1]; Tyvek substrate): >3.3 log
% Gram − bacteria reduced ([2]; PPNW substrate 25 g/m^2): >99.9996%
Gram − log reduction ([2]; PPNW substrate 25 g/m^2): >5.4 log
% Gram − bacteria reduced ([2]; Tyvek substrate): >98.7%
Gram − log reduction ([2]; Tyvek substrate): >1.9 log

Benzalkonium chloride [reference compound]
% Gram + bacteria reduced ([1]; PPNW substrate 25 g/m^2): >99.994%
Gram + log reduction ([1]; PPNW substrate 25 g/m^2): >4.2 log
% Gram + bacteria reduced ([1]; Tyvek substrate): >99.5%
Gram + log reduction ([1]; Tyvek substrate): >3.3 log
% Gram − bacteria reduced ([2]; PPNW substrate 25 g/m^2): 99.9996%
Gram − log reduction ([2]; PPNW substrate 25 g/m^2): 5.4 log
% Gram − bacteria reduced ([2]; Tyvek substrate): 98.7%
Gram − log reduction ([2]; Tyvek substrate): 1.9 log

Citric Acid
% Gram + bacteria reduced ([1]; PPNW substrate 25 g/m^2): >99.995%
Gram + log reduction ([1]; PPNW substrate 25 g/m^2): >4.3 log
% Gram + bacteria reduced ([1]; Tyvek substrate): >99.98%
Gram + log reduction ([1]; Tyvek substrate): >3.8 log
% Gram − bacteria reduced ([2]; PPNW substrate 25 g/m^2): >99.999%
Gram − log reduction ([2]; PPNW substrate 25 g/m^2): >5.0 log
% Gram − bacteria reduced ([2]; Tyvek substrate): 97.5%
Gram − log reduction ([2]; Tyvek substrate): 1.6 log
Avg. Phi-6 (log red) (Phi-6 bacteriophage; 6 passes): >2.2 log red
Phi-6 neutralized (%) (Phi-6 bacteriophage; 6 passes): >99.37%
Avg. Phi-6 (log red) (Phi-6 bacteriophage; 10 passes): >2.2 log red
Phi-6 neutralized (%) (Phi-6 bacteriophage; 10 passes): >99.37%
Avg. Phi-6 (log red) (Phi-6 bacteriophage; 20 passes): >2.2 log red
Phi-6 neutralized (%) (Phi-6 bacteriophage; 20 passes): >99.37%
pH test ([3]; 6 passes): 1.66
pH test ([3]; 10 passes): 1.72
pH test ([3]; 20 passes): 1.78
Virus neutralized (%) (MS2 virus; [4]): 93.7%
Viruside results (log red) (MS2 virus; [4]): 1.2 log red
Virus neutralized (%) (MS2 virus; [5]): 96.0%
Viruside results (log red) (MS2 virus; [5]): 1.4 log red
Virus neutralized (%) (MS2 virus; [9]): 99.8%
Viruside results (log red) (MS2 virus; [9]): 2.7 log red
Virus neutralized (%) (MS2 virus; [6]): 80.0%
Viruside results (log red) (MS2 virus; [6]): 0.7 log red
Virus neutralized (%) (MS2 virus; [7]): 93.7%
Viruside results (log red) (MS2 virus; [7]): 1.2 log red
Virus neutralized (%) (MS2 virus; [8]): 98.7%
Viruside results (log red) (MS2 virus; [8]): 1.9 log red
Virus neutralized (%) (MS2; [10]): 99.86%
Viruside results (log red) (MS2; [10]): 2.86 log red
Virus neutralized (%) (MS2; [11]): 97.76%
Virus neutralized (%) (MS2; [12]): 97.38%
Virus neutralized (%) (MS2; [13]): 99.00%
Virus neutralized (%) (MS2; [14]): 97.91%
Virus neutralized (%) (MS2; [15]): 99.78%
Viruside results (log red) (MS2; [15]): 2.65 log red
Virus neutralized (%) (MS2; [16]): 98.09%
Viruside results (log red) (MS2; [16]): 1.72 log red
Virus neutralized (%) (MS2; [17]): 96.45%
Virus neutralized (%) (MS2; [18]): 95.91%
Virus neutralized (%) (MS2; [19]): 97.61%
Virus neutralized (%) (MS2; [20]): 93.97%

PVP-12 Poly(vinylpyrrolidone)- Iodine complex [PVP-I2, reference compound]
% Gram + bacteria reduced ([1]; PPNW substrate 25 g/m^2): >99.994%
Gram + log reduction ([1]; PPNW substrate 25 g/m^2): >4.2 log
% Gram − bacteria reduced ([2]; PPNW substrate 25 g/m^2): >99.9996%
Gram − log reduction ([2]; PPNW substrate 25 g/m^2): >5.4 log

n-alkyl(C12-16)-n,n-dimethyl-n-benzylammonium chloride [BTC50E]
Virus neutralized (%) (MS2; [10]): 99.57%
Viruside results (log red) (MS2; [10]): 2.37 log red
Virus neutralized (%) (MS2; [21]): 99.96%
Viruside results (log red) (MS2; [21]): 3.38 log red
Virus neutralized (%) (MS2; [22]): 99.74%
Viruside results (log red) (MS2; [22]): 2.59 log red
Virus neutralized (%) (MS2; [11]): 99.35%
Virus neutralized (%) (MS2; [12]): 99.86%
Virus neutralized (%) (MS2; [13]): 99.89%
Virus neutralized (%) (MS2; [14]): 99.98%
Virus neutralized (%) (MS2; [15]): 99.83%
Viruside results (log red) (MS2; [15]): 2.78 log red
Virus neutralized (%) (MS2; [23]): 99.82%
Viruside results (log red) (MS2; [23]): 2.75 log red
Virus neutralized (%) (MS2; [16]): 99.83%
Viruside results (log red) (MS2; [16]): 2.78 log red
Virus neutralized (%) (MS2; [17]): 98.88%
Virus neutralized (%) (MS2; [18]): 99.83%
Virus neutralized (%) (MS2; [19]): 99.70%
Virus neutralized (%) (MS2; [20]): 98.59%
